We go through one compound from patent US20250281479A1, “TREATMENT OF CAVERNOUS ANGIOMAS WITH A 4-SUBSTITUTED PIPERIDINE DERIVATIVE” (Neurelis, Inc., priority 2024, published 2025).

Structures are written as SMILES. pEC50: −log10 of the molar value.

Common to all, as to assay type: in vitro ADME
For one series, the target named is BCRP (Homo sapiens, UniProt Q9UNQ0). The experiment in a line: transporter substrate assessment. How it is done: (§1) Exposure to NRL-2017 was similar or greater (up to 5-fold) than that to NRL-1049 in rats when dosed once a day (QD). In monkeys, exposure to NRL-2017 was also greater (up to 33-fold) than that to NRL-1049. When rats were dosed twice a day (BID) for 14 days, there was a decrease in formation of NRL-2017 with exposure to NRL-2017 lower than that of NRL-1049 (ratio as low as 0.06). […] NRL-1049 bound to human serum albumin and human alpha1-acid glycoprotein. […] There was also inhibition of P-glycoprotein (P-gp) (only CACO-2 cells), organic anion transporting polypeptides (OATP) OATP1B1, OATP1B3 and OAT3 (IC50, >100 μM), but no effect on P-gp (MDCK2 cells), breast cancer resistance protein (BCRP), bile salt export pump (BSEP), or MATE2-K. NRL-1049 is a substrate for P-gp, not BCRP. […] This conclusion will be revisited when human pharmacokinetic (PK) data becomes available.
Chain of BCRP (Q9UNQ0 whole entry): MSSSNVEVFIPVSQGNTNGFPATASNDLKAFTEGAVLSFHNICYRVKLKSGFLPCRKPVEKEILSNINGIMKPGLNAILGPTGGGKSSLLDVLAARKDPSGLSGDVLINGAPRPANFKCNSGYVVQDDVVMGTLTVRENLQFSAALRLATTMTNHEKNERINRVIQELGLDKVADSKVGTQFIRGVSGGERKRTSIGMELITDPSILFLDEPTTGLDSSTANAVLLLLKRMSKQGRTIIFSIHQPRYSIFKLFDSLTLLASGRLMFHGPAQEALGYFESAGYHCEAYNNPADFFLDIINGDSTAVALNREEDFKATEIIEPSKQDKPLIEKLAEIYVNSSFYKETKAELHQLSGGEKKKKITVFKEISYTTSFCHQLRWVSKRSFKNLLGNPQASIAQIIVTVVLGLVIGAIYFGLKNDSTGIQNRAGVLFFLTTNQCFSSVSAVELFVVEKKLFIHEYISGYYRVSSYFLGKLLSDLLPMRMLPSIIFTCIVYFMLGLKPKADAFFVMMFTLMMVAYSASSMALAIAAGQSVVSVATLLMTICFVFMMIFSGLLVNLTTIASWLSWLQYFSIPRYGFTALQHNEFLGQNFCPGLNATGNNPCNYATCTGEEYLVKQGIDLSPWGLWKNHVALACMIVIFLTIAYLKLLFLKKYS

Another series concerns the target P-gp (Homo sapiens, UniProt P08183). The experiment in a line: transporter substrate assessment. How it is done: as §1
The next series deals with CYP3A4. Put plainly: CYP induction in hepatocyte culture. The note with it: in at least one hepatocyte culture. The procedure: as §1
A further series relates to CYP1A2. Put plainly: CYP induction in hepatocyte culture. The note with it: in at least one hepatocyte culture. How it is done: as §1

Chain of P-gp (P08183 whole entry): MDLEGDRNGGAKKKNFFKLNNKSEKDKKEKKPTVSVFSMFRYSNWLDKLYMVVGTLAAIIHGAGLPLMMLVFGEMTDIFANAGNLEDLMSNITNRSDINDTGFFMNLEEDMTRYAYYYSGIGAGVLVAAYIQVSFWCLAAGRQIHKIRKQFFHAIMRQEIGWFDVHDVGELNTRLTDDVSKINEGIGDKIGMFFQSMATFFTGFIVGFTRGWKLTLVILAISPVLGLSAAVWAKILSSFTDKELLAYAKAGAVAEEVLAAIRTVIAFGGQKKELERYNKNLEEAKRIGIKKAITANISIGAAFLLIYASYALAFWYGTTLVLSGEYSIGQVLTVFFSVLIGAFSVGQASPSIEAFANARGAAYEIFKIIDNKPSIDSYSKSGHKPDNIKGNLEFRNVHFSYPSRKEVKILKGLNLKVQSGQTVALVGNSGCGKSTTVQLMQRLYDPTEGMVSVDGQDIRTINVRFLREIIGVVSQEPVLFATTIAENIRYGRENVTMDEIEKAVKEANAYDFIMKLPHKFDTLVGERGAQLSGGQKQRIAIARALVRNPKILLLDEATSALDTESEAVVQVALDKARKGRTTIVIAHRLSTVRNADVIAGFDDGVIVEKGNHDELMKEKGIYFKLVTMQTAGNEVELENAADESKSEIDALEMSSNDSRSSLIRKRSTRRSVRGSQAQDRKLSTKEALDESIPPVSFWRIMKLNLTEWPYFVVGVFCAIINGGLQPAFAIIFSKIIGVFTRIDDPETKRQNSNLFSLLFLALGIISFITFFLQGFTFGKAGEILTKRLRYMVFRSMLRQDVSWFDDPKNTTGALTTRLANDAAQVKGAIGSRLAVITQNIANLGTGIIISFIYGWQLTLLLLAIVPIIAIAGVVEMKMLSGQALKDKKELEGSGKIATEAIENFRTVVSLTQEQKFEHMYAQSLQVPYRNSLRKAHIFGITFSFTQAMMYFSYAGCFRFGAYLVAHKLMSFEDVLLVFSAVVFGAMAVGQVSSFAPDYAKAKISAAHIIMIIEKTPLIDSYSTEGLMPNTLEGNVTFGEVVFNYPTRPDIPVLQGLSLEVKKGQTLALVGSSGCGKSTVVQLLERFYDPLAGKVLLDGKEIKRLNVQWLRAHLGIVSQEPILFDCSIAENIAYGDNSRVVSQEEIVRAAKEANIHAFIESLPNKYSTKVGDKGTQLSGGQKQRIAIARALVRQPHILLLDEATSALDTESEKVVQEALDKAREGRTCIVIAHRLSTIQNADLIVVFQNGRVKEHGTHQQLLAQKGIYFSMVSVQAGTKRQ

Take `C[C@@H](N)C1CCN(S(=O)(=O)c2cccc3cnccc23)CC1` [NRL-1049]: the “substrate for BCRP” value at BCRP is listed as “not BCRP”. For the same compound, the “substrate for P-gp” value on P-gp is on record as “substrate”. In addition, the “induction of CYP3A4, maximal effective concentration [Emax]” value in the series on CYP3A4 is 2.19 fold. Also, the pEC50 in the series on CYP3A4 (read-out: induction of CYP3A4, half-maximal effective concentration [EC50]) was 4.38. Also, the “induction of CYP1A2” value in the series with CYP1A2 is 3 fold.
